# Patent US9090658B2, “Base-substituted benzylamine analogs for use as coagulation factor Xa inhibitors, the production and use thereof” (The Medicines Company (Leipzig) GmbH, priority 2003, dated 2015)
# Counter-ions that a name gives are not always drawn.
# Experiments:
# Thrombin = Thrombin (UniProt P00735); test: Determination of the inhibitory constants for thrombin (method of Stürzebecher et al. 1997); type: biochemical
# Text: The Ki values are the average of at least three determinations.
# factor Xa = target: T1, factor Xa (Bos taurus, UniProt P00743); test: Determination of the inhibitory constants for factor Xa (chromogenic substrate Moc-D-Nle-Gly-Arg-pNA, Dixon method); type: biochemical, bovine; conditions: for Ki: bovine factor Xa, 25° C., pH 8.0, average of at least three determinations
# T1 construct: purchased Diagnostic Reagents Ltd, Thame, GB
# Experimental: Determination of the inhibitory Effect
# To determine the inhibitory effect, 200 μl of this buffer (0.05 M 0.154 M NaCl, 5% Ethanol, pH 8.0; contains the inhibitor), 25 μl of substrate (Moc-D-Nle-Gly-Arg-pNA in H2O; Pentapharm Ltd., Basle, Switzerland) and 50 μl of factor Xa (bovine, Diagnostic Reagents Ltd, thame, GB) were incubated at 25° C. After 3 min, the reaction was stopped By adding 25 μl of acetic acid (50%), and the absorption at 405 nm was determined using a Microplate Reader (MR 5000, Dynatech, Denkendorf, Germany). The Ki values were Founder by the Dixon method (boichem. J. 55, 170-171, 1953) by linear regression using a Computer program. The Ki values are the average of at least three determinations. The Thrombin inhibitions was determined in analogy to a method described earlier (Stürzebecher et al., J. Med. Chem. 40, 3091-3099, 1997).
# T1 sequence (P00743 234-492 limits assumed): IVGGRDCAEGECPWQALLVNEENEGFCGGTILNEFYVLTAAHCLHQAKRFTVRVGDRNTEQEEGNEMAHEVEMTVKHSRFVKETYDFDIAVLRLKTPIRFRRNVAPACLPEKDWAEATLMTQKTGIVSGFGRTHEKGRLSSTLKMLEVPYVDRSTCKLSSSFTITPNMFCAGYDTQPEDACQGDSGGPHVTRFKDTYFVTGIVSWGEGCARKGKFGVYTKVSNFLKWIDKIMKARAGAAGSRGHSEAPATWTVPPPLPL
# T1 sequence (P00743 41-180 partner limits assumed): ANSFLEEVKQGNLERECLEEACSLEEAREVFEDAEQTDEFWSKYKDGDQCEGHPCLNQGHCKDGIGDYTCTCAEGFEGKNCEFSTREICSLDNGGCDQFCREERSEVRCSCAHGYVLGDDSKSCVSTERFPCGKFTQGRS
Structure (SMILES),Ki (Thrombin) [nM],selectivity ratio SR (SR = Ki thrombin/Ki factor Xa) (factor Xa),Ki (factor Xa) [nM]
"N=C(N)c1ccc(CNC(=O)[C@H](CO)NC(=O)[C@H](CCc2ccncc2)NS(=O)(=O)Cc2ccccc2)cc1 [Compound 3b, Bzls-D,L-homoAla(4-Pyr)-Ser-4Amba×2 TFA]",4600,48.4,95
"N=C(N)c1ccc(CNC(=O)[C@H](CO)NC(=O)C(CCc2ccncc2)NS(=O)(=O)Cc2ccncc2)cc1 (stereo partly drawn) [Compound 4, 4-PMs-D,L-homoAla(4-Pyr)-Ser-4Amba×3 acetate]",6300,65,97
"N=C(N)c1ccc(CNC(=O)[C@H](CO)NC(=O)[C@@H](CCc2ccccc2)NS(=O)(=O)Cc2ccncc2)cc1 [Compound 7, 4-PMs-dhomoPhe-Gly-4Amba×2 TFA]",3300,7.2,460
"N=C(N)c1ccc(CNC(=O)CNC(=O)[C@@H](CCc2ccccc2)NS(=O)(=O)Cc2ccccn2)cc1 [Compound 8, 2-PMs-d-homoPhe-Gly-4Amba×2 TFA]",4900,96,51
"N=C(N)c1ccc(CNC(=O)CNC(=O)[C@@H](CCc2ccccc2)NS(=O)(=O)Cc2cccnc2)cc1 [Compound 9, 3-PMs-dhomoPhe-Gly-4Amba×2 TFA]",5900,95,62
N=C(N)c1ccc(CNC(=O)CNC(=O)[C@@H](Cc2ccccc2)NS(=O)(=O)Cc2ccccc2)cc1 [Compound 10],68,2.6,26
N=C(N)c1ccc(CNC(=O)CNC(=O)[C@H](CCc2ccccc2)NS(=O)(=O)Cc2ccccc2)cc1 [Compound 12],11000,31,360
CS(=O)(=O)N[C@H](CCc1ccccc1)C(=O)NCC(=O)NCc1ccc(C(=N)N)cc1 [Compound 13],1300,1.2,1100
N=C(N)c1ccc(CNC(=O)CNC(=O)[C@@H](CCc2ccccc2)NS(=O)(=O)Cc2ccncc2)cc1 [Compound 14],3600,45,80
N=C(N)c1ccc(CNC(=O)[C@H](CO)NC(=O)[C@@H](CCc2ccccc2)NS(=O)(=O)Cc2ccccc2)cc1 [Compound 15],600,15,40
COC(=O)Cc1ccc(CS(=O)(=O)N[C@H](CCc2ccccc2)C(=O)NCC(=O)NCc2ccc(C(=N)N)cc2)cc1 [Compound 16],1800,47,38
N=C(N)c1ccc(CNC(=O)CNC(=O)[C@@H](CCc2ccccc2)NS(=O)(=O)Cc2ccc(CC(=O)O)cc2)cc1 [Compound 17],14000,259,54
N=C(N)c1ccc(CNC(=O)CNC(=O)[C@@H](CCc2ccccc2)NS(=O)(=O)NC2CCCCC2)cc1.O=C(O)C(F)(F)F [Compound 18],5400,49,110
N=C(N)c1ccc(CNC(=O)CNC(=O)[C@@H](CCc2ccccc2)NS(=O)(=O)Cc2ccccc2[N+](=O)[O-])cc1 [Compound 20],1200,46,26
N=C(N)c1ccc(CNC(=O)CNC(=O)[C@H](NS(=O)(=O)Cc2ccccc2)C2Cc3ccccc3C2)cc1 [Compound 21],150,5.2,29
N=C(N)c1ccc(CNC(=O)CNC(=O)[C@@H](CNc2ccncc2)NS(=O)(=O)Cc2ccccc2)cc1 [Compound 23],2800,127,22

# Molecules with a lower Ki (factor Xa), results first:
Ki (Thrombin) [nM],selectivity ratio SR (SR = Ki thrombin/Ki factor Xa) (factor Xa),Ki (factor Xa) [nM],Structure (SMILES)
1400,74,19,"N=C(N)c1ccc(CNC(=O)[C@H](CO)NC(=O)[C@@H](CCc2ccc(O)cc2)NS(=O)(=O)Cc2ccccc2)cc1 [Compound 6, Bzls-d-homoTyr-Ser-4Amba×TFA]"
3200,246,13,"N=C(N)c1ccc(CNC(=O)CNC(=O)C(CCc2ccncc2)NS(=O)(=O)Cc2ccncc2)cc1 (racemic) [Compound 2, 4-PMs-D,L-homoAla(4-Pyr)-Gly-4Amba×3 Acetate]"
–,–,10,N=C(N)c1ccc(CNC(=O)CNC(=O)C(CCc2ccncc2)NS(=O)(=O)Cc2ccc(C(=O)O)cc2)cc1 (stereo not shown) [Compound 48]
910,97,9.4,"N=C(N)c1ccc(CNC(=O)[C@H](CO)NC(=O)[C@@H](CCc2ccncc2)NS(=O)(=O)Cc2ccccc2)cc1 [Compound 3a, Bzls-D,L-homoAla(4-Pyr)-Ser-4Amba×2 TFA]"
920,137,6.7,N=C(N)c1ccc(CNC(=O)CNC(=O)[C@@H](CCc2ccccc2)NS(=O)(=O)Cc2ccccc2N)cc1 [Compound 19]
47,7.2,6.5,N=C(N)c1ccc(CNC(=O)CNC(=O)[C@@H](CCc2ccccc2)NS(=O)(=O)Cc2ccccc2)cc1 [Compound 11]
35000,6250,5.6,N=C(N)c1ccc(CNC(=O)[C@H](CCC(=O)O)NC(=O)C(CCc2ccncc2)NS(=O)(=O)Cc2ccc([N+](=O)[O-])cc2)cc1 (stereo partly shown) [Compound 37]
860,165,5.2,N=C(N)c1ccc(CNC(=O)CNC(=O)[C@@H](CCc2ccc(O)cc2)NS(=O)(=O)Cc2ccc([N+](=O)[O-])cc2)cc1 [Compound 36]
2000,400,5,N=C(N)c1ccc(CNC(=O)CNC(=O)C(CCc2cccnc2)NS(=O)(=O)Cc2ccccc2)cc1 (stereo not shown) [Compound 24]
1000,200,5,CCOC(=O)CC[C@H](NC(=O)[C@@H](CCc1ccc(O)cc1)NS(=O)(=O)Cc1ccccc1)C(=O)NCc1ccc(C(=N)N)cc1 [Compound 35]
19000,5135,3.7,N=C(N)c1ccc(CNC(=O)[C@H](CCC(=O)O)NC(=O)[C@@H](CCc2ccc(O)cc2)NS(=O)(=O)Cc2ccccc2)cc1 [Compound 34]
380,105,3.6,N=C(N)c1ccc(CNC(=O)CNC(=O)[C@@H](CCc2ccccc2)NS(=O)(=O)Cc2ccc(O)cc2)cc1 [Compound 32]
100000,27778,3.6,N=C(N)c1ccc(CNC(=O)[C@H](CCC(=O)O)NC(=O)[C@@H](CCc2ccncc2)NS(=O)(=O)Cc2ccc(O)cc2)cc1 [Compound 33]
1900,543,3.5,N=C(N)c1ccc(CNC(=O)CNC(=O)C(CCc2ccncc2)NS(=O)(=O)Cc2ccc([N+](=O)[O-])cc2)cc1 (stereo not shown) [Compound 31]
78000,22940,3.4,N=C(N)c1ccc(CNC(=O)[C@H](CCC(=O)O)NC(=O)[C@@H](CCc2ccc(O)cc2)NS(=O)(=O)Cc2ccc(N)cc2)cc1 [Compound 30]
2000,690,2.9,"N=C(N)c1ccc(CNC(=O)CNC(=O)C(CCc2ccncc2)NS(=O)(=O)Cc2ccccc2)cc1 (racemic) [Compound 1, Bzls-D,L-homoAla(4-Pyr)-Gly-4Amba×2 TFA]"
1500,556,2.7,"N=C(N)c1ccc(CNC(=O)CNC(=O)[C@@H](CCc2ccc(O)cc2)NS(=O)(=O)Cc2ccccc2)cc1 [Compound 5, Bzls-d-homoTyr-Gly-4Amba×TFA]"
700,259,2.7,N=C(N)c1ccc(CNC(=O)CNC(=O)[C@@H](CCc2ccncc2)NS(=O)(=O)Cc2ccccc2)cc1 [Compound 22]
260,100,2.6,N=C(N)c1ccc(CNC(=O)CNC(=O)[C@@H](CCc2ccccc2)NS(=O)(=O)Cc2ccc(N)cc2)cc1 [Compound 29]
1000,454,2.2,N=C(N)c1ccc(CNC(=O)CNC(=O)C(CCc2ccncc2)NS(=O)(=O)Cc2ccc(N)cc2)cc1 (stereo not shown) [Compound 28]
2000,952,2.1,N=C(N)c1ccc(CNC(=O)CNC(=O)C(CCc2ccccn2)NS(=O)(=O)Cc2ccccc2)cc1 (stereo not shown) [Compound 25]
560,295,1.9,N=C(N)c1ccc(CNC(=O)CNC(=O)[C@@H](CCc2ccc(O)cc2)NS(=O)(=O)Cc2ccc(N)cc2)cc1 [Compound 27]
25000,14705,1.7,N=C(N)c1ccc(CNC(=O)[C@H](CCC(=O)O)NC(=O)[C@@H](CCc2ccncc2)NS(=O)(=O)Cc2ccc(N)cc2)cc1 [Compound 26]
